Consider 14 compounds from PubChem BioAssay (NCI).

Among the test systems are BT-549 breast; SK-MEL-28 melanoma; CCRF-CEM leukemia; SR leukemia; 786-0 renal; HOP-92 NSCLC; SW-620 colon; DU-145 prostate; MDA-MB-435; CAKI-1 renal.
Common to all, as to test: DTP human tumour cell line panel, 48 h

SMILES strings stand for the structures.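 Compound exposure: 48 hours, 5 concentrations, 96-well plates. GI50 marks 50% less growth. TGI: concentration producing complete growth inhibition.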 Bounds are passed on as bounds.

One may read the GI50 as the concentration giving 50% growth inhibition. For orientation: TGI means the concentration giving total growth inhibition. Lower therefore signals more potent growth arrest. Take `CC1(C)Cc2c(Br)c(Br)c(Br)c(OCC(O)CN3CCN(c4ccccn4)CC3)c2O1` (configuration not stated): the GI50 was 11.6 µM with BT-549 breast; 18 µM in the assay on SK-MEL-28 melanoma; 3.81 µM in the assay on CCRF-CEM leukemia; 4.38 µM in the assay on SR leukemia; 12.5 µM with 786-0 renal; 4.87 µM with HOP-92 NSCLC. For the same compound, the GI50 in the assay with SW-620 colon was 15.2 µM; in the assay with DU-145 prostate, 14.4 µM; in the assay with MDA-MB-435, 14.3 µM. The TGI is 26 µM in the assay on BT-549 breast; 32.7 µM with SK-MEL-28 melanoma; greater than 100 µM with CCRF-CEM leukemia; 24.7 µM in the assay with SR leukemia; 26.1 µM with 786-0 renal; 19.8 µM with HOP-92 NSCLC. Further, the TGI was determined as 29.2 µM in the assay on SW-620 colon, 30.6 µM in the assay on DU-145 prostate and 33.6 µM in the assay with MDA-MB-435.
Consider `CCCCOC1OC(COC(=O)C(C)C)C(OC(=O)C(C)C)C(O)C1OC1OC(C)C(OC(=O)CCC)C(OC(=O)C(C)C)C1O` (configuration not stated), for which the GI50 in the assay on CAKI-1 renal is 17.4 µM; with BT-549 breast it was 22.1 µM; in the assay with SK-MEL-28 melanoma, 16.2 µM; with CCRF-CEM leukemia it was 10.8 µM; in the assay with 786-0 renal, 14 µM; in the assay on HOP-92 NSCLC, 13.2 µM. In addition, the GI50 is 14.7 µM in the assay on SW-620 colon, 16.3 µM in the assay with DU-145 prostate and 14.5 µM in the assay with MDA-MB-435. In addition, the TGI in the assay with CAKI-1 renal was found to be 31.1 µM; in the assay with BT-549 breast, 37.7 µM; with SK-MEL-28 melanoma, 30 µM; with CCRF-CEM leukemia it was 24.1 µM; with 786-0 renal, 26.9 µM; in the assay with HOP-92 NSCLC, 25.9 µM. Also, the TGI in the assay on SW-620 colon was determined as 27.8 µM; in the assay with DU-145 prostate, 29.8 µM; with MDA-MB-435, 27.6 µM.
Turning to `COc1cc(C)c2sc3ccccc3c(=O)c2c1NCCN(C)C`, the GI50 with CAKI-1 renal was 5.87 µM; in the assay on BT-549 breast, 12.5 µM; in the assay on SK-MEL-28 melanoma it was 1.83 µM; in the assay with SR leukemia it was 2.79 µM; with 786-0 renal, 8.34 µM; with HOP-92 NSCLC it was 1.51 µM. Moreover, the values for the GI50 with SW-620 colon, in the assay with DU-145 prostate and with MDA-MB-435 were 3.39 µM, 7 µM and 2.91 µM, respectively. The TGI with CAKI-1 renal is 19.4 µM; in the assay on BT-549 breast, 25.4 µM; with SK-MEL-28 melanoma it was 3.42 µM; in the assay with SR leukemia, 7.91 µM; with 786-0 renal, 22.2 µM; in the assay with HOP-92 NSCLC it was 8.64 µM. The TGI in the assay on SW-620 colon turned out to be 14.5 µM; in the assay on DU-145 prostate, 20 µM; with MDA-MB-435 it was 10.6 µM.
As to `COc1ccc(C(=O)c2sc3nc(-c4cccs4)ccc3c2N)cc1OC`, the GI50 is 5.29 µM in the assay on CAKI-1 renal; 3.82 µM with BT-549 breast; 4.98 µM in the assay with SK-MEL-28 melanoma; 4.53 µM with CCRF-CEM leukemia; 3.26 µM in the assay on SR leukemia; 62.4 µM with 786-0 renal. Also, the GI50 with SW-620 colon was 5.07 µM; in the assay on DU-145 prostate, 16 µM; in the assay on MDA-MB-435 it was 1.43 µM. The TGI in the assay on CAKI-1 renal is greater than 100 µM; in the assay with BT-549 breast, greater than 100 µM; in the assay on SK-MEL-28 melanoma it was 70.4 µM; with CCRF-CEM leukemia, greater than 100 µM; in the assay with SR leukemia, 22.7 µM; in the assay on 786-0 renal, greater than 100 µM. Moreover, the TGI is greater than 100 µM in the assay with SW-620 colon, greater than 100 µM with DU-145 prostate and 4.76 µM in the assay on MDA-MB-435.
For the compound `COC(=O)c1cc(OC)c(OC)c(OC)c1-c1cc2c(cc1C=O)OCO2`, the total growth inhibition concentration (TGI) with CAKI-1 renal, in the assay with BT-549 breast, in the assay with SK-MEL-28 melanoma, in the assay on CCRF-CEM leukemia, in the assay on 786-0 renal and with HOP-92 NSCLC was greater than 10 µM each time. Also, the TGI with SW-620 colon, with DU-145 prostate and in the assay with MDA-MB-435 was greater than 10 µM each time.
In the case of `CN(C)c1cccc(F)c1C(=O)NC(=O)Nc1ccc(Cl)cc1`, the TGI was 99 µM in the assay on CAKI-1 renal; greater than 100 µM in the assay on BT-549 breast; greater than 100 µM with SK-MEL-28 melanoma; greater than 100 µM in the assay with SR leukemia; greater than 100 µM in the assay on 786-0 renal; greater than 100 µM in the assay with HOP-92 NSCLC. In addition, the TGI with SW-620 colon is greater than 100 µM; in the assay on DU-145 prostate, greater than 100 µM; with MDA-MB-435, 3.44 µM.
As for `O=C(O)c1c(Br)c(Br)c(Br)c(Br)c1C1c2ccc(O)cc2Oc2cc(O)ccc21`, the TGI in the assay with CAKI-1 renal, in the assay with BT-549 breast, with SK-MEL-28 melanoma, with 786-0 renal, in the assay on HOP-92 NSCLC and in the assay on SW-620 colon was greater than 100 µM throughout. Also, the TGI with DU-145 prostate and with MDA-MB-435 was greater than 100 µM each time.
As for `O=[N+]([O-])c1cc([N+](=O)[O-])c(Cl)cc1Cl`, the GI50 in the assay with CAKI-1 renal is 0.188 µM; with BT-549 breast, 1.69 µM; in the assay with SK-MEL-28 melanoma, 1.74 µM; in the assay with CCRF-CEM leukemia, 0.217 µM; with 786-0 renal, 1.71 µM; in the assay with HOP-92 NSCLC, 1.59 µM. Also, the values for the GI50 in the assay on DU-145 prostate and in the assay on MDA-MB-435 were 1.56 µM and 1.61 µM, respectively. For the same compound, the TGI turned out to be 0.352 µM with CAKI-1 renal; 3.1 µM in the assay with BT-549 breast; 3.24 µM in the assay with SK-MEL-28 melanoma; 0.505 µM with CCRF-CEM leukemia; 3.21 µM in the assay with 786-0 renal; 4.11 µM in the assay with HOP-92 NSCLC. Further, the TGI was 2.9 µM in the assay with DU-145 prostate and 3.22 µM with MDA-MB-435.
Regarding `COc1cc2oc3c(c(=O)c2c(O)c1/C=C/C(C)C)C(C=C(C)C)Oc1cc(O)ccc1-3` (configuration not stated), the TGI with CAKI-1 renal worked out at 32.2 µM; with BT-549 breast, 23.4 µM; in the assay on SK-MEL-28 melanoma, 31.2 µM; in the assay with CCRF-CEM leukemia, 30.4 µM; with 786-0 renal, 30.6 µM; in the assay on HOP-92 NSCLC it was 29.3 µM. Besides, the TGI in the assay on SW-620 colon worked out at 32.3 µM; in the assay on DU-145 prostate it was 30.2 µM; in the assay on MDA-MB-435 it was 30.8 µM.
For `COc1cc(Cl)cc(-c2nn(-c3cccc(NC(=O)Nc4ccc(Cl)c(Cl)c4)c3)cc2-c2ccncc2)c1`, the GI50 with CAKI-1 renal was 2.38 µM; with BT-549 breast, 2.62 µM; in the assay with SK-MEL-28 melanoma it was 2.96 µM; with CCRF-CEM leukemia, 2 µM; with SR leukemia, 1.54 µM; with 786-0 renal, 2.31 µM. The GI50 was 3.43 µM with SW-620 colon, 3.85 µM in the assay on DU-145 prostate and 2.08 µM in the assay on MDA-MB-435. The TGI in the assay with CAKI-1 renal worked out at 16.7 µM; with BT-549 breast, 8.28 µM; in the assay on SK-MEL-28 melanoma, 36.8 µM; in the assay with CCRF-CEM leukemia, 6 µM; in the assay with SR leukemia, 5.8 µM; in the assay on 786-0 renal it was 7.84 µM. The concentration for total growth inhibition (TGI) in the assay with SW-620 colon was greater than 100 µM; in the assay with DU-145 prostate, greater than 100 µM; with MDA-MB-435, 6 µM.
With `NC(CSSCC(N)C(=O)O)C(=O)O` (configuration not stated), the GI50 in the assay on CAKI-1 renal, with BT-549 breast, in the assay with SK-MEL-28 melanoma, in the assay on CCRF-CEM leukemia, with 786-0 renal and with HOP-92 NSCLC was greater than 100 µM in each case. Further, the GI50 with SW-620 colon, with DU-145 prostate and with MDA-MB-435 was greater than 100 µM in each case. Moreover, the TGI in the assay on CAKI-1 renal, in the assay on BT-549 breast, in the assay on SK-MEL-28 melanoma, with CCRF-CEM leukemia, in the assay on 786-0 renal and in the assay on HOP-92 NSCLC was greater than 100 µM each time. Also, the TGI in the assay on SW-620 colon, in the assay on DU-145 prostate and with MDA-MB-435 was greater than 100 µM each time.
In the case of `CC1SC2(CCCCC2)N(NC(=O)c2[nH]c3ccc(Br)cc3c2-c2ccccc2)C1=O` (configuration not stated), the GI50 in the assay with CAKI-1 renal is 62.5 µM; in the assay with BT-549 breast, greater than 100 µM; with SK-MEL-28 melanoma, 56.2 µM; with CCRF-CEM leukemia, 7 µM; in the assay with 786-0 renal it was 17.5 µM; with HOP-92 NSCLC, 14.6 µM. Besides, the GI50 in the assay with SW-620 colon is greater than 100 µM; in the assay with DU-145 prostate, greater than 100 µM; with MDA-MB-435 it was 30.1 µM. The TGI in the assay on CAKI-1 renal was greater than 100 µM; with BT-549 breast it was greater than 100 µM; with SK-MEL-28 melanoma, greater than 100 µM; with CCRF-CEM leukemia, greater than 100 µM; in the assay on 786-0 renal, 98.4 µM; in the assay with HOP-92 NSCLC it was 64.8 µM. In addition, the TGI in the assay with SW-620 colon, in the assay with DU-145 prostate and in the assay with MDA-MB-435 was greater than 100 µM in each case.
As to `N#CC(C#N)=C/C=C(\Sc1ccc(F)cc1Cl)c1ccc(Cl)cc1`, the GI50 in the assay on CAKI-1 renal is 0.427 µM; in the assay with BT-549 breast it was 0.598 µM; in the assay with SK-MEL-28 melanoma it was 1.23 µM; in the assay with CCRF-CEM leukemia it was 0.107 µM; with SR leukemia, 0.0756 µM; in the assay with 786-0 renal, 0.523 µM. Also, the figures for the GI50 in the assay with SW-620 colon, with DU-145 prostate and in the assay on MDA-MB-435 were 0.387 µM, 0.657 µM and 0.35 µM, respectively. Also, the TGI in the assay on CAKI-1 renal is 3.61 µM; with BT-549 breast, 3.7 µM; in the assay with SK-MEL-28 melanoma, 10.4 µM; in the assay with SR leukemia, greater than 100 µM; with 786-0 renal, 2.39 µM; in the assay with SW-620 colon it was 3.82 µM. Also, the figures for the TGI in the assay on DU-145 prostate and with MDA-MB-435 were 8.55 µM and 1.73 µM, respectively.
`CCCCNc1ccc(Nc2ccccc2)cc1`: the GI50 was 18.6 µM with CAKI-1 renal; 2.84 µM in the assay on BT-549 breast; 10.4 µM in the assay with SK-MEL-28 melanoma; 2.93 µM with CCRF-CEM leukemia; 10.4 µM in the assay on 786-0 renal; 3.42 µM in the assay on HOP-92 NSCLC. Also, the GI50 in the assay on SW-620 colon is 5.06 µM; in the assay with DU-145 prostate, 7.87 µM; in the assay with MDA-MB-435, 3.29 µM. Also, the TGI in the assay with CAKI-1 renal is 88.5 µM; in the assay with BT-549 breast it was 21.6 µM; in the assay with SK-MEL-28 melanoma, 60.2 µM; with CCRF-CEM leukemia, greater than 100 µM; with 786-0 renal, 74.6 µM; with HOP-92 NSCLC, 32.5 µM. Further, the TGI is greater than 100 µM in the assay with SW-620 colon, greater than 100 µM in the assay on DU-145 prostate and 24.3 µM in the assay on MDA-MB-435.
